Blank lines part the entries; values can stand above or below the molecule they belong to. Ends that are not written are not given here.
Tests used:
[1] = molecular target: T1, Angiotensin Converting Enzyme from rabbit lung (Oryctolagus cuniculus, UniProt P12822); assay: Inhibitory kinetics study (Lineweaver-Burk plot); format: biochemical; conditions: different HHL and peptide concentrations
T1 construct: Angiotensin Converting Enzyme from rabbit lung; purchased Sigma-Aldrich; host or cells: rabbit lung tissue
T1 sequence (P12822 34-1310): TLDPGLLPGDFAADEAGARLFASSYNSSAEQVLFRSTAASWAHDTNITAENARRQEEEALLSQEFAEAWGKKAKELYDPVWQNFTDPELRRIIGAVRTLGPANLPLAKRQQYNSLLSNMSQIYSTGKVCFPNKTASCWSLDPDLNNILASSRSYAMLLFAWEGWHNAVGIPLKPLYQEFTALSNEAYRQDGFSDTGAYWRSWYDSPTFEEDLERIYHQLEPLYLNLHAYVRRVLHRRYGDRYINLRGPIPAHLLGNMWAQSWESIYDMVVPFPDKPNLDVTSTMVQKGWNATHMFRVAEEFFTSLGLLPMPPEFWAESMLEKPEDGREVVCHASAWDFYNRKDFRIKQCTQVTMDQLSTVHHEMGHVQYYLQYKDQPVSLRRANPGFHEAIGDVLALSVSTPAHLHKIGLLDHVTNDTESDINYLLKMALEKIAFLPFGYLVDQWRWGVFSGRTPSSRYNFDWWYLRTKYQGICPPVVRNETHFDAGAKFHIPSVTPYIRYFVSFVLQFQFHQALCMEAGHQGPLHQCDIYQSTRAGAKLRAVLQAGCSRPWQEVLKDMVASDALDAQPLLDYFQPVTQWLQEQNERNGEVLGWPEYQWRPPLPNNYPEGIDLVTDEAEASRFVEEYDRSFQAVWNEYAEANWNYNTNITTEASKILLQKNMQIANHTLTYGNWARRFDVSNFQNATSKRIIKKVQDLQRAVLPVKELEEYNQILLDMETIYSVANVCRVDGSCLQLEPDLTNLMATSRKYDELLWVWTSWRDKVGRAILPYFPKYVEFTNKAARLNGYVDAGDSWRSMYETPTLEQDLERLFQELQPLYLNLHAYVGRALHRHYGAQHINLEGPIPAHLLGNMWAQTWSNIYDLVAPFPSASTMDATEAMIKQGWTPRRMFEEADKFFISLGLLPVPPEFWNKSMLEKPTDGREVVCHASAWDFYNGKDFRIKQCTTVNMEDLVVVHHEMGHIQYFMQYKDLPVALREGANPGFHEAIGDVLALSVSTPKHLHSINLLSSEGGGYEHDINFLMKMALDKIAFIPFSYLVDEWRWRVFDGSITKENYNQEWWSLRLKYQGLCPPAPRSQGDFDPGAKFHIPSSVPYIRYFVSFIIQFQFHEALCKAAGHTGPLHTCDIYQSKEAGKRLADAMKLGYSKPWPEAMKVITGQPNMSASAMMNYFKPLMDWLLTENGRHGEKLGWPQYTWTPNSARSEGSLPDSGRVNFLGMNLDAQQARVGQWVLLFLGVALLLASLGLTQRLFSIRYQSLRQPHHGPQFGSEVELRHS
Procedure: Briefly, the enzyme activities were measured with different concentrations of the substrate (HHL) and the ACE inhibitory pattern in the presence of the inhibitor was determined with a Lineweaver–Burk plot.

[2] = molecular target: T1, Angiotensin Converting Enzyme from rabbit lung; assay: ACE-inhibitory activity assay (RP-HPLC, HHL substrate); format: biochemical; conditions: HHL 6.5 mM, ACE 0.2 U, 37°C, 60 min, pH 8.3; HA at 228 nm by RP-HPLC; mean ± SD; sample concentration not given
Procedure: (§1) ACE inhibitory activity was measured using an RP-HPLC method with Hippuryl-His-Leu (HHL) as a substrate, which generated hippuric acid (HA) under enzymatic hydrolysis ([19]). The sample was dissolved in a borax-boric acid buffer containing 0.15 M NaCl (pH = 8.3). Firstly, add 10 μL ACE (0.2 U) to the sample tube and blank tube, respectively. At the same time, add 10 μL of sample to the sample tube, and add 10 μL of buffer and 80 μL of 1 M HCl to the blank tube, then pre-incubate at 37°C for 5 min. The reaction was initiated by adding 30 μL HHL (6.5 mM) and incubated for 60 min at the same temperature until 80 μL 1 M HCl was added to terminate the reaction.
ACE inhibitory activity (%) was confirmed by monitoring the formation of HA at 228 nm as detected by RP-HPLC on a C18 column (250 × 4.6 mm, 5 μm, Ecosil). The mobile phase was 25% acetonitrile and 75% water with 0.01% trifluoroacetic acid with a flow rate of 1 mL/min. The inhibition activity was calculated using the following equation:
Inhibition activity(%)=A-B-A0/A-A0×100%
Where, A = the HA peak area of the control; B = the HA peak area of the sample; A0 = the HA peak area of control with HCL before pre-incubated.
The inhibitory activity of the hydrolysates or collected fractions was expressed as percentage of ACE inhibition at a given protein concentration ([20]).

[3] = test system: A7r5 cells; assay: Transwell cell migration assay of Ang II-stimulated VSMCs; format: cell-based, rat; conditions: 48 h, Ang II in lower chamber, crystal violet, absorbance 570 nm
Procedure: A7r5 cells were collected and suspended in DMEM (1% FBS), and then the density was adjusted to 2 × 10^5 cells ml^−1. In each group, cell suspensions with or without FPQYLQYPY were cultured in the upper chamber of a Transwell (8.0 μm, Corning, NY, USA) ([26]), and at the same time, the lower chamber was filled with or without Ang II for 48 h. […] After rinsing with PBS, a cotton swab was used to remove the upper unmigrated cells. The migratory cells were observed and photographed under an inverted microscope. Last, a 33% acetic acid solution was added to quantify the crystal violet, and the absorbance of samples was measured at a wavelength of 570 nm using a microplate reader.

[4] = molecular target: T1, Angiotensin Converting Enzyme from rabbit lung; assay: ACE inhibitory activity after in vitro gastrointestinal digest; format: biochemical
Procedure: as §1
In vitro digestion of the potent purified ACE inhibitory peptide was carried out according to the reported method, with some adjustments ([22], [23]). Peptide (0.4 mL, 1.5 mg mL^−1) was incubated with 2% (w/w) α-amylase, pepsin, or trypsin at 37°C.
In successive digestion tests, the peptide was first dissolved in buffer solution (pH 6.8) to 2 mg mL^−1 and incubated with α-amylase for 5 min. Then the pH was decreased to pH 2 with the addition of 1 M HCl. Subsequently, the gastric digestion was initiated by adding pepsin at an enzyme-substrate ratio of 2:100 (w/w). The reaction was stopped after 2 h by raising the pH to 8.0 with 1 M NaOH, and trypsin was added to the reactor to continue gastrointestinal digestion for 4 h. Last, the reaction mixture was heated for 15 min in boiling water to inactivate the enzyme.

[5] = test system: A7r5 cells; assay: Wound healing assay of Ang II-stimulated VSMCs; format: cell-based, rat; conditions: 100 μg mL^−1, Ang II 1 μM, 24 h, ImageJ
Procedure: Migration of A7r5 cells was evaluated using the wound healing assay ([25]). Three lines were drawn horizontally on the back of each hole on the 6-well plate with a marker. Cells in logarithmic growth phase were evenly seeded into 6-well plates with 2 × 10^5 cells per well, and grown in complete medium until the cells covered the bottom of the plate, then the medium was replaced by quiescing medium for overnight.
Afterwards, a sterile 200 μL spear head was used to quickly delimit at an average equal distance in the vertical direction according to the marking line, and washed with PBS to remove the floating cells. […] The migration distance was analyzed by ImageJ software.

[6] = test system: A7r5 cells; conditions: co-treatment 10, 50, 100 μg mL^−1 with Ang II 0.1 μM, 24 h, CCK-8
Procedure: The rat aortic vascular smooth muscle cell line A7r5, was purchased from Cell bank of Chinese Academy of Sciences (Shanghai, China). A7r5 cells between passage 8 and 20 were grown in DMEM supplemented with 10% FBS and antibiotics until they reached confluence. For experiments, the confluent cells were placed in a quiescing medium (DMEM + 1% FBS + antibiotics) ([24]) for 24 h, before treatment with different concentrations of [sequence] and Ang II for different time periods.
Cell proliferation was measured by the Cell Counting Kit-8. A7r5 cells were seeded at 5 × 10^3 cells per well into 96-well plates and grown in DMEM with 10% of FBS for 24 h, then the medium was replaced by quiescing medium overnight. The cells were co-treated with different concentrations of [sequence] (0, 10, 50, 100 μg mL^−1) and Ang II (0.1 μM) for 24 h. The absorbance of samples at a wavelength of 450 nm was measured using a microplate reader. The cell survival rate (%) was determined by the percentage of living cells in the test wells compared to the control wells.

[7] = test system: A7r5 cells; assay: Real time quantitative RT-PCR of differentially expressed genes; format: cell-based, rat; conditions: FPQYLQYPY-treated group vs Ang II-treated group
Procedure: Total RNA was extracted from A7r5 cells using TRIzol reagent, according to the manufacturer's specifications. The information of primer sequences is shown in Supplementary Table 1. RT reactions were performed in a GeneAmp® PCR System 9700 (Applied Biosystems, USA). Then, Real-time PCR was performed using the LightCycler® 480 II Real-time PCR Instrument (Roche, Swiss). The relative expression level was calculated using the 2^−ΔΔCt.

[8] = test system: A7r5 cells; assay: Cell cytotoxicity test (CCK-8); format: cell-based, rat; conditions: 1–200 μg mL^−1, 24 h, CCK-8, P > 0.05
Procedure: The cytotoxic effects of FPQYLQYPY in cell culture were evaluated using the Cell Counting Kit-8. First, A7r5 cells were seeded at 1 × 10^4 cells per well into 96-well plates (Costar, Corning, NY, USA) and cultured in a 5% CO2 incubator at 37°C for 24 h. Then, the medium of each well was replaced by 100 μL of fresh medium with different concentrations of FPQYLQYPY (0, 1, 5, 10, 50, 100, or 200 μg mL^−1). After further incubation for 24 h, 10 μL CCK-8 solution was added to each well. Then, the plate was incubated for another 2 h.

[9] = test system: ACE; conditions: peptides <3 kDa from fermented goat milk; cited from earlier work
Text: Among them, VLPVPQKAV ...

[10] = molecular target: T2, Angiotensin Converting Enzyme from rabbit lung (rabbit) (UniProt P12822)
T2 sequence: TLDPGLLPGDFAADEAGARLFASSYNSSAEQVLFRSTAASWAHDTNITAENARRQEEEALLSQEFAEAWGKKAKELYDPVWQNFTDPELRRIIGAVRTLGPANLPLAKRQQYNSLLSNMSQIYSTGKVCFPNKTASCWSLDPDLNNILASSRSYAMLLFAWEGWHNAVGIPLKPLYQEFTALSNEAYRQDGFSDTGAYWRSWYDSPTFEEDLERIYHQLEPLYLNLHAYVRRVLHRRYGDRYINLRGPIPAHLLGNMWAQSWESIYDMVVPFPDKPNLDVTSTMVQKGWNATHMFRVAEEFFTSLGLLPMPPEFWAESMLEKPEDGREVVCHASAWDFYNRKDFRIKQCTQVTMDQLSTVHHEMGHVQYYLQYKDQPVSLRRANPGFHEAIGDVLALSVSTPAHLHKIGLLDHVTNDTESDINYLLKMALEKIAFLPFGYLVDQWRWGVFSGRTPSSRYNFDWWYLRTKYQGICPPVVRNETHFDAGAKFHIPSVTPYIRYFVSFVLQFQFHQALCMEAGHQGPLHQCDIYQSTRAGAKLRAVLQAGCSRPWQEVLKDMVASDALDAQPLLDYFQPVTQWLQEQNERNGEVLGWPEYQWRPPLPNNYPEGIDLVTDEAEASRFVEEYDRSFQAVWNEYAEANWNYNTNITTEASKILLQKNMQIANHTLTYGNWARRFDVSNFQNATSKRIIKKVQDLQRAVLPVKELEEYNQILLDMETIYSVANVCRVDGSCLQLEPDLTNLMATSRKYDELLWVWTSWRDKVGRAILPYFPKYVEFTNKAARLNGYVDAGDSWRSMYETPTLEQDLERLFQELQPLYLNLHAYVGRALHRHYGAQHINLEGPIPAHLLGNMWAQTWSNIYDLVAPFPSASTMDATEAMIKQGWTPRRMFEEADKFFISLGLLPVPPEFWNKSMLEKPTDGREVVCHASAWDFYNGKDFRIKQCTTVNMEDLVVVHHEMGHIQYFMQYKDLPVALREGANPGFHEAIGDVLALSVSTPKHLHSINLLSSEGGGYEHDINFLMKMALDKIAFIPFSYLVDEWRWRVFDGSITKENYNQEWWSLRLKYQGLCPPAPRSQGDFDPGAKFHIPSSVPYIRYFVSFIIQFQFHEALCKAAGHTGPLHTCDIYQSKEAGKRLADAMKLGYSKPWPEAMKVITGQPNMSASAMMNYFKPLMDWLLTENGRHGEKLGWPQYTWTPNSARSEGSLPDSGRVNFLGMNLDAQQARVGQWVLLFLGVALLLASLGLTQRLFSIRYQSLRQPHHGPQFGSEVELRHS

[11] = molecular target: T2, Angiotensin Converting Enzyme from rabbit lung (rabbit); remark: listed apart in the source
[12] = before digestion (inactivated enzyme), mean ± SD

Molecule: FPQYLQYPY [FPQYLQYPY, also synthesized]
Inhibition pattern against ACE [1]: non-competitive | ACE inhibition rate [2]: 71.19 ± 0.71% | Cell migration in Transwell experiment [3]: the decrease in the level of cell migration was noteworthy | ACE inhibitory (%), oral digestion (α-Amylase), Digested ([4]; 2% (w/w) α-amylase, pH 6.8, 5 min, 37°C, mean ± SD): 57.95 ± 0.22% | ACE inhibitory (%), gastric digestion (Pepsin), Original [4, 12]: 54.12 ± 1.56% | ACE inhibitory (%), intestinal digestion (Trypsin), Original [4, 12]: 49.86 ± 1.68% | ACE inhibitory (%), oral digestion (α-Amylase), Original [4, 12]: 53.47 ± 7.32% | ACE inhibitory (%), gastric digestion (Pepsin), Digested ([4]; pepsin 2:100 (w/w), pH 2, 2 h, 37°C, mean ± SD): 56.41 ± 1.91% | ACE inhibitory (%), intestinal digestion (Trypsin), Digested ([4]; trypsin 2% (w/w), pH 8.0, 4 h, 37°C, mean ± SD): 45.76 ± 0.42% | Change of ACE inhibitory activity after incubation with the digestive enzymes ([4]; α-amylase, pepsin, trypsin, 37°C, read-out ACE inhibition): no significant difference | Distance of the wound healing area (migration) [5]: restore the distance of the wound healing area to the level of the control group | Proliferation of Ang II-stimulated VSMCs [6]: significantly decreased the percentage of proliferating cells | Cox5b mRNA expression [7]: downregulated | Efna4 mRNA expression [7]: downregulated | Igf1r mRNA expression [7]: downregulated | Itga3 mRNA expression [7]: downregulated | Myl4 mRNA expression [7]: upregulated | Plcb3 mRNA expression [7]: downregulated | Shc4 mRNA expression [7]: upregulated | Taok3 mRNA expression [7]: downregulated | Tgfb1 mRNA expression [7]: upregulated | Cytotoxic effect on A7r5 cells [8]: no obvious cytotoxic effect

Molecule: VLPVPQKVVPQ
ACE-inhibitory activity [9]: good ACE-inhibitory activity

Molecule: VLPVPQKAVPQ
ACE-inhibitory activity [9]: good ACE-inhibitory activity

ACE inhibitory (%), undigested peptide ('Original') of the gastric digestion step (pepsin) [10]: 54.1% | ACE inhibitory (%), undigested peptide ('Original') of the intestinal digestion step (trypsin) [10]: 49.9% | ACE inhibitory (%), undigested peptide ('Original') of the oral digestion step (α-amylase) [10]: 53.5% | ACE-inhibitory ability (%) of the purified fraction F3 (HHL substrate, hippuric acid by RP-HPLC; concentration not given) [11]: 71.2%
Molecule: FPQYLQYPY [ACE-inhibitory peptide Phe-Pro-Gln-Tyr-Leu-Gln-Tyr-Pro-Tyr (…)]

Source: paper PMC9037752, “A Novel Angiotensin I-Converting Enzyme Inhibitory Peptide Derived From Goat Milk Casein Hydrolysate Modulates Angiotensin II-Stimulated Effects on Vascular Smooth Muscle Cells” (Frontiers in Nutrition, 2022)
